Data taken from US6914045B2, “Glycopeptide antibiotics” (Wyeth Holdings Corporation, priority 2001, dated 2005).
Values after ≈ are worked out from the molar mass of the structure shown.

Key:
Experiment in all cases: in vitro antibacterial evaluation, MIC by broth dilution
Format in all cases: cell-based
Streptococcus sp. = conditions: broth dilution, 18 hours at 35° C.
Summary of the method: (§1)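 Test organisms, which included recent clinical isolates resistant to methicillin, penicillin and/or vancomycin, were inoculated at 5×10^5 CFU/mL into Muller-Hinton II […] containing antibiotic at 64-0.06 μg/mL. Minimum inhibitory concentrations were then read as the lowest level inhibiting growth.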

Enterococcus sp. = conditions: broth dilution, 18 hours at 35° C.
Summary of the method: as §1

Escherichia coli = conditions: 18 hours at 35° C.
Summary of the method: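 Broth dilution per NCCLS standard M7-A2 in Muller-Hinton II […], with an inoculum of 5×10^5 CFU/mL and antibiotic spanning 64-0.06 μg/mL. The MIC is the lowest concentration that inhibits growth of the organism.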

Staphylococcus sp. = conditions: broth dilution, 18 hours at 35° C.
Summary of the method: as §1

- MIC Streptococcus pneumoniae (ATCC 6301) (Streptococcus sp.; strain ATCC 6301): 1 µg/mL (≈ 0.726 µM)
- MIC Streptococcus pneumoniae (GC 1894) (Streptococcus sp.; strain GC 1894): 1 µg/mL (≈ 0.726 µM)
- MIC Streptococcus pyogenes (GC 4563) (Streptococcus sp.; strain GC 4563): 2 µg/mL (≈ 1.45 µM)
- MIC Streptococcus agalactiae (GC 4564) (Streptococcus sp.; strain GC 4564): 4 µg/mL (≈ 2.9 µM)
- MIC Streptococcus pneumoniae (GC 4565) (Streptococcus sp.; strain GC 4565): 2 µg/mL (≈ 1.45 µM)
- MIC Enterococcus avium (GC 4558) (Enterococcus sp.; Enterococcus avium (GC 4558)): 32 µg/mL (≈ 23.2 µM)
- MIC Enterococcus faecalis (ATCC 29212) (Enterococcus sp.; Enterococcus faecalis (ATCC 29212)): 32 µg/mL (≈ 23.2 µM)
- MIC Enterococcus faecalis (GC 4553) (Enterococcus sp.; Enterococcus faecalis (GC 4553)): 32 µg/mL (≈ 23.2 µM)
- MIC Enterococcus faecalis (GC 4554) (Enterococcus sp.; Enterococcus faecalis (GC 4554)): 32 µg/mL (≈ 23.2 µM)
- MIC Enterococcus faecalis (GC 6189) (Enterococcus sp.; Enterococcus faecalis (GC 6189)): 32 µg/mL (≈ 23.2 µM)
- MIC Enterococcus faecium (GC 2243) (Enterococcus sp.; Enterococcus faecium (GC 2243)): 32 µg/mL (≈ 23.2 µM)
- MIC Enterococcus faecium (GC 4556) (Enterococcus sp.; Enterococcus faecium (GC 4556)): 32 µg/mL (≈ 23.2 µM)
- MIC Enterococcus faecium (GC 4557) (Enterococcus sp.; Enterococcus faecium (GC 4557)): 8 µg/mL (≈ 5.81 µM)
- MIC Enterococcus faecalis (ATCC 29212) (Enterococcus sp.; strain ATCC 29212): 32 µg/mL (≈ 23.2 µM)
- MIC Enterococcus faecalis (GC 2242) (Enterococcus sp.; strain GC 2242): 32 µg/mL (≈ 23.2 µM)
- MIC Enterococcus faecium (GC 2243) (Enterococcus sp.; strain GC 2243): 32 µg/mL (≈ 23.2 µM)
- MIC Enterococcus faecalis (GC 2691) (Enterococcus sp.; strain GC 2691): 32 µg/mL (≈ 23.2 µM)
- MIC Enterococcus faecalis (GC 3059) (Enterococcus sp.; strain GC 3059): 64 µg/mL (≈ 46.5 µM)
- MIC Enterococcus faecalis (GC 4552) (Enterococcus sp.; strain GC 4552): 32 µg/mL (≈ 23.2 µM)
- MIC Enterococcus faecalis (GC 4553) (Enterococcus sp.; strain GC 4553): 32 µg/mL (≈ 23.2 µM)
- MIC Enterococcus faecalis (GC 4554) (Enterococcus sp.; strain GC 4554): 32 µg/mL (≈ 23.2 µM)
- MIC Enterococcus faecium (GC 4556) (Enterococcus sp.; strain GC 4556): 32 µg/mL (≈ 23.2 µM)
- MIC Enterococcus faecium (GC 4557) (Enterococcus sp.; strain GC 4557): 8 µg/mL (≈ 5.81 µM)
- MIC Enterococcus avium (GC 4558) (Enterococcus sp.; strain GC 4558): 32 µg/mL (≈ 23.2 µM)
- MIC Enterococcus faecalis (GC 6189) (Enterococcus sp.; strain GC 6189): 32 µg/mL (≈ 23.2 µM)
- MIC Escherichia coli (ATCC 25922) (Escherichia coli; Escherichia coli (ATCC 25922)): >64 µg/mL
- MIC Escherichia coli (GC 4559) (Escherichia coli; Escherichia coli (GC 4559)): >64 µg/mL
- MIC Escherichia coli (GC 4560) (Escherichia coli; Escherichia coli (GC 4560)): 4 µg/mL (≈ 2.9 µM)
- MIC Coagulase Negative Staphylococcus (GC 4547) (Staphylococcus sp.): 4 µg/mL (≈ 2.9 µM)
- MIC Coagulase Negative Staphylococcus (GC 4548) (Staphylococcus sp.): 4 µg/mL (≈ 2.9 µM)
- MIC Coagulase Negative Staphylococcus (GC 4549) (Staphylococcus sp.): 2 µg/mL (≈ 1.45 µM)
- MIC Coagulase Negative Staphylococcus (GC 4551) (Staphylococcus sp.): 8 µg/mL (≈ 5.81 µM)
- MIC Coagulase Negative Staphylococcus (GC 6257) (Staphylococcus sp.): 2 µg/mL (≈ 1.45 µM)
- MIC Staphylococcus aureus (ATCC 29213) (Staphylococcus sp.): 8 µg/mL (≈ 5.81 µM)
- MIC Staphylococcus aureus (GC 1131) (Staphylococcus sp.): 8 µg/mL (≈ 5.81 µM)
- MIC Staphylococcus aureus (GC 3051) (Staphylococcus sp.): 4 µg/mL (≈ 2.9 µM)
- MIC Staphylococcus aureus (GC 3053) (Staphylococcus sp.): 8 µg/mL (≈ 5.81 µM)
- MIC Staphylococcus aureus (GC 4541) (Staphylococcus sp.): 8 µg/mL (≈ 5.81 µM)
- MIC Staphylococcus aureus (GC 4542) (Staphylococcus sp.): 8 µg/mL (≈ 5.81 µM)
- MIC Staphylococcus aureus (GC 4544) (Staphylococcus sp.): 8 µg/mL (≈ 5.81 µM)
- MIC Staphylococcus aureus (GC 4545) (Staphylococcus sp.): 4 µg/mL (≈ 2.9 µM)
- MIC Staphylococcus aureus-SMITH (GC 4543) (Staphylococcus sp.): 8 µg/mL (≈ 5.81 µM)
- MIC Staphylococcus aureus (ATCC 29213) (Staphylococcus sp.; strain ATCC 29213): 8 µg/mL (≈ 5.81 µM)
- MIC Staphylococcus aureus (GC 1131) (Staphylococcus sp.; strain GC 1131): 8 µg/mL (≈ 5.81 µM)
- MIC Staphylococcus aureus (GC 3051) (Staphylococcus sp.; strain GC 3051): 4 µg/mL (≈ 2.9 µM)
- MIC Staphylococcus aureus (GC 3053) (Staphylococcus sp.; strain GC 3053): 8 µg/mL (≈ 5.81 µM)
- MIC Staphylococcus aureus (GC 4541) (Staphylococcus sp.; strain GC 4541): 8 µg/mL (≈ 5.81 µM)
- MIC Staphylococcus aureus (GC 4542) (Staphylococcus sp.; strain GC 4542): 8 µg/mL (≈ 5.81 µM)
- MIC Staphylococcus aureus (GC 4544) (Staphylococcus sp.; strain GC 4544): 8 µg/mL (≈ 5.81 µM)
- MIC Staphylococcus aureus (GC 4545) (Staphylococcus sp.; strain GC 4545): 4 µg/mL (≈ 2.9 µM)
- MIC Coagulase Negative Staphylococcus (GC 4547) (Staphylococcus sp.; strain GC 4547): 4 µg/mL (≈ 2.9 µM)
- MIC Coagulase Negative Staphylococcus (GC 4548) (Staphylococcus sp.; strain GC 4548): 4 µg/mL (≈ 2.9 µM)
- MIC Coagulase Negative Staphylococcus (GC 4549) (Staphylococcus sp.; strain GC 4549): 2 µg/mL (≈ 1.45 µM)
- MIC Coagulase Negative Staphylococcus (GC 4551) (Staphylococcus sp.; strain GC 4551): 8 µg/mL (≈ 5.81 µM)
- MIC Coagulase Negative Staphylococcus (GC 6257) (Staphylococcus sp.; strain GC 6257): 2 µg/mL (≈ 1.45 µM)
- MIC Staphylococcus aureus-SMITH (GC 4543) (Staphylococcus sp.; strain SMITH GC 4543): 8 µg/mL (≈ 5.81 µM)
Structure (SMILES): CC=C(C)C(=O)OC1C(CO)OC(OC2C(CO)OC(Oc3ccc(CC4NC(=O)C(C(C)c5ccccc5)NC(=O)CNC(=O)C(CO)NC(=O)C(C(O)C5CNC(=N)N5C5OC(CO)C(O)C(O)C5O)NC(=O)C(C(O)C5CNC(=N)N5)NC4=O)cc3)C(O)C2O)C(O)C1O (stereo not drawn) [Example 278b, Cyclo[glycyl-β-methylphenylalanyl-O-[4-O-[4-O-(2-methylbut-2-enoyl)hexopyranosyl]-hexopyranosyl]tyrosyl-3-(2-iminoimidazolidin-4-yl)seryl-3-(3-hexopyranosyl-2-imino-imidazolidin-4-yl)serylseryl]]
- MIC Staphylococcus haemolyticus (GC 4546) (Staphylococcus sp.): 4 µg/mL (≈ 2.9 µM)
- MIC Staphylococcus haemolyticus (GC 4546) (Staphylococcus sp.; strain GC 4546): 4 µg/mL (≈ 2.9 µM)
